This note sets out measurements from ChEMBL document CHEMBL1134351, “Synthesis of new cyclitol compounds that influence the activity of phosphatidylinositol 4-kinase isoform, PI4K230” (J Med Chem, 2001).

This assay addresses Phosphatidylinositol 4-kinase alpha (Bos taurus) (UniProt O02811). Description: Inactivation of the enzyme PI4K230 from bovine brain membranes. Details: concentration or dose not given beside the values.

Sequence of Phosphatidylinositol 4-kinase alpha (Bos taurus) (O02811 whole entry): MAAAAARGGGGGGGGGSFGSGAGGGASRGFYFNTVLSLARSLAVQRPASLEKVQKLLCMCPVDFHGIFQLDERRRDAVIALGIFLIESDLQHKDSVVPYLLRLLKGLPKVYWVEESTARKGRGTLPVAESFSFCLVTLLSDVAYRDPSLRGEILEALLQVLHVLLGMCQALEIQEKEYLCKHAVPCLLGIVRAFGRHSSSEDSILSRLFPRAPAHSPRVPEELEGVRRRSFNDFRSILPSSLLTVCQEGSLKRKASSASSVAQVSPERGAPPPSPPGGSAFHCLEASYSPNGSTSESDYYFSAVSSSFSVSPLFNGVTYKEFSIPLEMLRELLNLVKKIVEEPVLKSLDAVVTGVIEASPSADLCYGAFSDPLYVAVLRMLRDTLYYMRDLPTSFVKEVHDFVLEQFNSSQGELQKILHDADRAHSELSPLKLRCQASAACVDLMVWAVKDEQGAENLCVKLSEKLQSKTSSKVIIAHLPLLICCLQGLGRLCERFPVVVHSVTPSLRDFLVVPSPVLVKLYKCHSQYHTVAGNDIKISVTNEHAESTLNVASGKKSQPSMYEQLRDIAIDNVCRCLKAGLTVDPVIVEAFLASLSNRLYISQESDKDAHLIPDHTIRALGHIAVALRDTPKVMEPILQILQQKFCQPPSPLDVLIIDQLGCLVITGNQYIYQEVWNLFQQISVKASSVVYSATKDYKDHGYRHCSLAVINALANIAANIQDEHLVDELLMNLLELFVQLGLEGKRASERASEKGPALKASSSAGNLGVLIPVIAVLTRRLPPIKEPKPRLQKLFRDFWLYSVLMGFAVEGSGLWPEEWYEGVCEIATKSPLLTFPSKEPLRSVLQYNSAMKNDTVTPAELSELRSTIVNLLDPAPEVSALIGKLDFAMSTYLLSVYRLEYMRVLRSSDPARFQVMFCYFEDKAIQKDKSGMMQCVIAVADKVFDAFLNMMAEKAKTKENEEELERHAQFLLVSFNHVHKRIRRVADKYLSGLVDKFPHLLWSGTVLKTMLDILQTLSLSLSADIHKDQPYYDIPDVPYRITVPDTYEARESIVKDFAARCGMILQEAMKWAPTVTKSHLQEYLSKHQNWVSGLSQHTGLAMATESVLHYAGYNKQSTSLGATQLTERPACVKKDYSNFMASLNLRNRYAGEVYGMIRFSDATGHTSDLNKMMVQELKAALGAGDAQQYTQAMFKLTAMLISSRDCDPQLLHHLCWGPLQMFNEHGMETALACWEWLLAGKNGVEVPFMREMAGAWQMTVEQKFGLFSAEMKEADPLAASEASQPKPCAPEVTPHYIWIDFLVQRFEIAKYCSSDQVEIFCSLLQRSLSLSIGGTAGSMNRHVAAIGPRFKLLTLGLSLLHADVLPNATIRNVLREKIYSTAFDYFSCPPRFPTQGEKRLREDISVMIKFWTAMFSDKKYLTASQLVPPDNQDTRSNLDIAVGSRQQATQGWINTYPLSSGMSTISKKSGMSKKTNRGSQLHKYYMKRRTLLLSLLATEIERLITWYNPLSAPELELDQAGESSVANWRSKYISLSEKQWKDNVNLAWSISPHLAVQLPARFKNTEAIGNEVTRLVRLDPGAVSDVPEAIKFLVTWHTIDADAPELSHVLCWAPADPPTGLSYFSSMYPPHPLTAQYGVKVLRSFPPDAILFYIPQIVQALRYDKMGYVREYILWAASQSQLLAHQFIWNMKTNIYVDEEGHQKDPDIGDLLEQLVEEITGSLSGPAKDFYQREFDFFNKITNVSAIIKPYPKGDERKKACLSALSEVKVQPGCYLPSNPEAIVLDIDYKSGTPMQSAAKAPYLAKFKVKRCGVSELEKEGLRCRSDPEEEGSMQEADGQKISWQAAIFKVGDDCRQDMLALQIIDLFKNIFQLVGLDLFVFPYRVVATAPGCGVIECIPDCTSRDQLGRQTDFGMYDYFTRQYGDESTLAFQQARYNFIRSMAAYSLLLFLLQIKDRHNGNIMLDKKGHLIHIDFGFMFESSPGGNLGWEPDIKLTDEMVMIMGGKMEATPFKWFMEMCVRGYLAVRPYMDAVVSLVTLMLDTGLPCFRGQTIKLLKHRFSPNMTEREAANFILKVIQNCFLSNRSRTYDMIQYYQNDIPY

In turn, `O=C(O[C@@H]1C(=O)C=CC[C@H]1OC(=O)c1ccccc1)c1ccccc1` gave a Remaining activity of 8%.

`[N-]=[N+]=N[C@@H]1C[C@@H](O)CC(=O)[C@H]1OC(=O)c1ccccc1` showed a Remaining activity of 80%.

With `CC(=O)O[C@H]1CC(=O)[C@@H](OC(=O)c2ccccc2)[C@H](N=[N+]=[N-])C1`, the Remaining activity is 10%.

The compound `COC(=O)/C=C1\C[C@H](O)C[C@@H](N=[N+]=[N-])[C@@H]1OCc1ccccc1` showed a Remaining activity of 70%.

Take `[N-]=[N+]=N[C@@H]1C[C@@H](O)CC(=O)[C@H]1OCc1ccccc1`: the Remaining activity stood at 85%.

For the compound `O=C(O[C@@H]1C(=O)C[C@H](O)C[C@H]1OC(=O)c1ccccc1)c1ccccc1`, the Remaining activity worked out at 84%.

With `O=C1C[C@H](O)CC=C1OC(=O)c1ccccc1`, the Remaining activity was 51%.

`[N-]=[N+]=N[C@@H]1CC=CC(=O)[C@H]1OC(=O)c1ccccc1` returned a Remaining activity of 5%.

Compound `COC(=O)/C=C1\C[C@H](O)C[C@@H](N=[N+]=[N-])[C@@H]1OC(=O)c1ccccc1` displayed a Remaining activity of 63%.

`CC(=O)O[C@@H]1[C@@H](NC(=O)c2ccccc2)[C@@H](O)CC(=O)[C@H]1OC(C)=O`: the Remaining activity was 56%.

The compound `CC1(C)OC2CC(=O)C[C@@H](O)C2O1` (some centres undefined) yielded a Remaining activity of 80%.

In the case of `[N-]=[N+]=N[C@@H]1C[C@@H](O)CC2(SCCS2)[C@H]1OC(=O)c1ccccc1`, the Remaining activity amounted to 96%.

In turn, `CC(=O)O[C@@H]1CC(=O)[C@@H](OCc2ccccc2)[C@H](N=[N+]=[N-])C1` returned a Remaining activity of 82%.

Take `COC(=O)/C=C1\C[C@H](O)C[C@@H](OC(=O)c2ccccc2)[C@@H]1OC(=O)c1ccccc1`: the Remaining activity came out at 64%.

The compound `CC(=O)O[C@@H]1C[C@@H](N=[N+]=[N-])[C@H](OC(=O)c2ccccc2)C2(C1)SCCS2` came in with a Remaining activity of 96%.

For `CC1(C)OC2C=CC(=O)CC2O1` (centres undefined), the Remaining activity was 57%.

As to `[N-]=[N+]=N[C@@H]1CC=CC(=O)[C@H]1OCc1ccccc1`, the Remaining activity was found to be 85%.

In turn, `CC(=O)O[C@@H]1CC(=O)[C@@H](OC(=O)c2ccccc2)[C@H](OC(=O)c2ccccc2)C1` displayed a Remaining activity of 20%.

Compound `[N-]=[N+]=N[C@@H]1C[C@@H](O)C/C(=N\O)[C@H]1OC(=O)c1ccccc1` returned a Remaining activity of 66%.
